According to PubChem BioAssay AID330 (DTP/NCI, 2004):
Where “and” joins values, the source holds several entries; their conditions need not be identical. Identical values can stand only once. Inconclusive results and toxic doses are left out. Rule for the calls: active = survival T/C of 150% or more; inactive = T/C below 125% in these data. Bridge positions count the residues as written; N and C are the ends. Peptide text beside a SMILES is read from it. I, II: the chains in the order shown. * marks the point of attachment. Cbz = O=C(OCc1ccccc1)*

Test system: P388 leukemia ip, CD2F1 mice, survival T/C
Experiment: NCI In Vivo Anticancer Drug Screen. Data for tumor model P388 Leukemia (intraperitoneal) in CD2F1 (CDF1) mice
Conditions: endpoint: median survival time, higher = longer survival
Method in brief: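 Mice carrying the transplanted tumor received test compound or vehicle. Survival was recorded in each group, and the value is the treated-group measurement divided by that of the vehicle-treated control group.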

[1] = dose: 50.0 mg/kg/injection, schedule: Q01DX009 (ip), vehicle: saline
[2] = dose: 100.0 mg/kg/injection, schedule: Q01DX009 (ip), vehicle: saline
[3] = dose: 200.0 mg/kg/injection, schedule: Q01DX009 (ip), vehicle: saline
[4] = dose: 60.0 mg/kg/injection, schedule: Q01DX005 (ip), vehicle: Klucel (hydroxypropylcellulose) (HPC)
[5] = dose: 120.0 mg/kg/injection, schedule: Q01DX005 (ip), vehicle: Klucel (hydroxypropylcellulose) (HPC)
[6] = dose: 240.0 mg/kg/injection, schedule: Q01DX005 (ip), vehicle: Klucel (hydroxypropylcellulose) (HPC)
[7] = dose: 50.0 mg/kg/injection, schedule: Q01DX005 (ip), vehicle: saline with Tween-80
[8] = dose: 100.0 mg/kg/injection, schedule: Q01DX005 (ip), vehicle: saline with Tween-80
[9] = dose: 50.0 mg/kg/injection, schedule: Q01DX005 (ip), vehicle: Klucel (hydroxypropylcellulose) (HPC)
[10] = dose: 200.0 mg/kg/injection, schedule: Q01DX005 (ip), vehicle: saline with Tween-80
[11] = dose: 12.5 mg/kg/injection, schedule: Q01DX009 (ip), vehicle: saline with Tween-80
[12] = dose: 25.0 mg/kg/injection, schedule: Q01DX009 (ip), vehicle: saline with Tween-80
[13] = dose: 50.0 mg/kg/injection, schedule: Q01DX009 (ip), vehicle: saline with Tween-80
[14] = dose: 100.0 mg/kg/injection, schedule: Q01DX009 (ip), vehicle: saline with Tween-80
[15] = dose: 200.0 mg/kg/injection, schedule: Q01DX009 (ip), vehicle: saline with Tween-80

Measured: T/C

Cc1ccc(NC(=O)Oc2cc(C)c(Br)c(C)c2)cc1Cl
inactive: [1] 107 % of control | [2] 95 % of control | [3] 91 % of control

CC1C(c2ccccc2)OCN1CC=C(c1ccsc1)c1ccsc1 (stereo not drawn)
inactive: [4] 96 % of control | [5] 91 % of control | [6] 91 % of control

Cc1c(O)c(=O)ccn1CCO
inactive: dose: 50.0 mg/kg/injection, schedule: Q01DX005 (ip), vehicle: saline 102 % of control and 104 % of control | dose: 100.0 mg/kg/injection, schedule: Q01DX005 (ip), vehicle: saline 100 % of control and 106 % of control | dose: 200.0 mg/kg/injection, schedule: Q01DX005 (ip), vehicle: saline 117 % of control and 124 % of control

CN(C(=O)C1(C)OC1c1ccccc1)c1ccccc1 (stereo not drawn)
inactive: dose: 100.0 mg/kg/injection, schedule: Q04DX003 (ip), vehicle: Klucel (hydroxypropylcellulose) (HPC) 96 % of control | dose: 200.0 mg/kg/injection, schedule: Q04DX003 (ip), vehicle: Klucel (hydroxypropylcellulose) (HPC) 100 % of control | dose: 400.0 mg/kg/injection, schedule: Q04DX003 (ip), vehicle: Klucel (hydroxypropylcellulose) (HPC) 94 % of control

O=C1OC(=O)c2ccc3c4c(ccc1c24)C(=O)OC3=O
inactive: [7] 104 % of control | [8] 105 % of control

Cc1c(-c2cccc(Cl)n2)nc2ccccc2c1C(=O)O
inactive: dose: 100.0 mg/kg/injection, schedule: Q04DX002 (ip), vehicle: saline with Tween-80 99 % of control | dose: 200.0 mg/kg/injection, schedule: Q04DX002 (ip), vehicle: saline with Tween-80 99 % of control | dose: 400.0 mg/kg/injection, schedule: Q04DX002 (ip), vehicle: saline with Tween-80 99 % of control

CCCCCCCc1cc(=O)[nH]c(=S)[nH]1
inactive: [4] 96 % of control | [5] 95 % of control | [6] 89 % of control

CC1NC(=O)C(NC(=O)OCc2ccccc2)COC(=O)C(C(C)C)NC(=O)C2CSSCC(NC1=O)C(=O)NC(C(C)C)C(=O)OCC(NC(=O)OCc1ccccc1)C(=O)NC(C)C(=O)N2 (stereo not drawn) (I: Cbz-SACV / II: Cbz-SACV; ester I:1-II:C, I:C-II:1; disulfide I:3-II:3; configuration not given here)
inactive: dose: 1.25 mg/kg/injection, schedule: Q01DX005 (ip), vehicle: Klucel (hydroxypropylcellulose) (HPC) 101 % of control | dose: 2.5 mg/kg/injection, schedule: Q01DX005 (ip), vehicle: Klucel (hydroxypropylcellulose) (HPC) 101 % of control | dose: 5.0 mg/kg/injection, schedule: Q01DX005 (ip), vehicle: Klucel (hydroxypropylcellulose) (HPC) 99 % of control | dose: 10.0 mg/kg/injection, schedule: Q01DX005 (ip), vehicle: Klucel (hydroxypropylcellulose) (HPC) 96 % of control | dose: 12.5 mg/kg/injection, schedule: Q01DX005 (ip), vehicle: Klucel (hydroxypropylcellulose) (HPC) 96 % of control | dose: 25.0 mg/kg/injection, schedule: Q01DX005 (ip), vehicle: Klucel (hydroxypropylcellulose) (HPC) 96 % of control | [9] 99 % of control

OC(C/C=C/c1ccccc1)(c1ccccc1)c1ccccc1
inactive: [1] 109 % of control | [2] 100 % of control | [3] 91 % of control

C[C@@H]1C[C@@H]2c3cccc4c3c(cn4CO)C[C@H]2N(C)C1
inactive: [7] 100 % of control | [8] 100 % of control | [10] 107 % of control

Cc1ccc(C(=O)c2cc3c([nH]c4ccccc43)c(C)c2C(=O)O)cc1
inactive: [9] 103 % of control | dose: 100.0 mg/kg/injection, schedule: Q01DX005 (ip), vehicle: Klucel (hydroxypropylcellulose) (HPC) 92 % of control | dose: 200.0 mg/kg/injection, schedule: Q01DX005 (ip), vehicle: Klucel (hydroxypropylcellulose) (HPC) 100 % of control

CCCCCCC1(O)OC(=O)C(C)=C1C (stereo not drawn)
inactive: dose: 12.5 mg/kg/injection, schedule: Q04DX003 (ip), vehicle: saline with Tween-80 110 % of control | dose: 25.0 mg/kg/injection, schedule: Q04DX003 (ip), vehicle: saline with Tween-80 94 % of control | dose: 50.0 mg/kg/injection, schedule: Q04DX003 (ip), vehicle: saline with Tween-80 94 % of control

[O-]c1nn(Cc2ccccc2)c2cccc[n+]12
inactive: dose: 100.0 mg/kg/injection, schedule: Q04DX002 (ip), vehicle: saline 103 % of control | dose: 200.0 mg/kg/injection, schedule: Q04DX002 (ip), vehicle: saline 99 % of control | dose: 400.0 mg/kg/injection, schedule: Q04DX002 (ip), vehicle: saline 100 % of control

CCOC(=O)CN1CCCC(C(=O)CC2(O)C3(Cl)C4(Cl)C5(Cl)C(Cl)(Cl)C6(Cl)C4(Cl)C2(Cl)C6(Cl)C53Cl)C1 (stereo not drawn)
inactive: [11] 97 % of control | [12] 98 % of control | [13] 101 % of control | [14] 100 % of control

O=C(Nc1cc(Cl)ccc1Cl)O/N=C/c1ccncc1
inactive: [13] 93 % of control | [14] 94 % of control | [15] 94 % of control

O=C1C(=O)c2ccc3c(c2-c2cc4c(cc21)OCO4)OCO3
inactive: [4] 86 % of control | [5] 87 % of control

O=C(CC(c1ccccc1)c1ccccc1)c1ccccc1
inactive: [13] 86 % of control | [14] 90 % of control | [15] 88 % of control | dose: 400.0 mg/kg/injection, schedule: Q01DX009 (ip), vehicle: saline with Tween-80 89 % of control

CCCCCCC(CCCCCC)=NO
inactive: [7] 95 % of control | [8] 113 % of control | [10] 104 % of control

C1=CC2CCC1C1CSCC21 (stereo not drawn)
inactive: dose: 12.5 mg/kg/injection, schedule: Q01DX009 (ip), vehicle: saline 98 % of control | dose: 25.0 mg/kg/injection, schedule: Q01DX009 (ip), vehicle: saline 100 % of control | [1] 87 % of control and 92 % of control

O=C(Nc1cc(-c2ccccc2)[nH]n1)c1ccc(Cl)cc1
inactive: dose: 60.0 mg/kg/injection, schedule: Q01DX005 (ip), vehicle: saline with Tween-80 102 % of control | dose: 120.0 mg/kg/injection, schedule: Q01DX005 (ip), vehicle: saline with Tween-80 93 % of control | dose: 240.0 mg/kg/injection, schedule: Q01DX005 (ip), vehicle: saline with Tween-80 93 % of control

O=C(/C=C/c1c2ccccc2cc2ccccc12)c1ccc(C(=O)/C=C/c2c3ccccc3cc3ccccc23)cc1
inactive: [11] 105 % of control | [12] 90 % of control

O=C1C=CC2OC(c3ccccc3)C(O)C2O1 (stereo not drawn)
inactive: dose: 3.12 mg/kg/injection, schedule: Q01DX005 (ip), vehicle: DMSO 98 % of control | dose: 6.25 mg/kg/injection, schedule: Q01DX005 (ip), vehicle: DMSO 107 % of control | dose: 6.25 mg/kg/injection, schedule: Q01DX005 (ip), vehicle: saline with Tween-80 110 % of control and 118 % of control (2×) | dose: 6.25 mg/kg/injection, schedule: Q01DX009 (ip), vehicle: distilled water + Tween-80 + alcohol 98 % of control | dose: 12.5 mg/kg/injection, schedule: Q01DX005 (ip), vehicle: DMSO 116 % of control | dose: 12.5 mg/kg/injection, schedule: Q01DX005 (ip), vehicle: saline with Tween-80 103 % of control (2×) and 117 % of control | dose: 12.5 mg/kg/injection, schedule: Q01DX009 (ip), vehicle: distilled water + Tween-80 + alcohol 109 % of control | dose: 25.0 mg/kg/injection, schedule: Q01DX005 (ip), vehicle: DMSO 122 % of control | dose: 25.0 mg/kg/injection, schedule: Q01DX005 (ip), vehicle: saline with Tween-80 109 % of control (2×) and 118 % of control | dose: 25.0 mg/kg/injection, schedule: Q01DX009 (ip), vehicle: distilled water + Tween-80 + alcohol 118 % of control | dose: 30.0 mg/kg/injection, schedule: Q01DX009 (ip), vehicle: DMSO 113 % of control | [7] 107 % of control
